Test results published in patent US6683183B2, “Pyridotriazines and pyridopyridazines” (Warner-Lambert Company, priority 2000, dated 2004).

Assays:
FGFR-1 = molecular target: T1, FGFR-1 (Homo sapiens, UniProt P11362); test: FGFR tyrosine kinase inhibition (DELFIA); assay type: biochemical; settings: kinase domain at 20 nM
T1 construct: The kinase domains from FGFR-1, VEGFR-2, Lck, and PDGF were purified from baculoviral vectors expression systems; made in house; host or cells: baculovirus expression system (insect cells)
T1 sequence (P11362 478-767 limits assumed): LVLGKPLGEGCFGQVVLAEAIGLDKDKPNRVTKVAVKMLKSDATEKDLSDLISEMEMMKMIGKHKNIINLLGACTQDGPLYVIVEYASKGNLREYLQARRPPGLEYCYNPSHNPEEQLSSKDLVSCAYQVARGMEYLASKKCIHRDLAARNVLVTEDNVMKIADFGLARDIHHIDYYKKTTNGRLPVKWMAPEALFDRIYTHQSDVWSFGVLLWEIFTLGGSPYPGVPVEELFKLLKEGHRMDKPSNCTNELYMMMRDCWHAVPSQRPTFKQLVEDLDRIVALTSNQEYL
Text: (§1) Full-length cDNAs for the mouse PDGF-β and human FGF-1 (flg) receptor tyrosine kinases were obtained from J. Escobedo and prepared as described in J. Biol. Chem., 1991;262:1482-1487. PCR primers were designed to amplify a fragment of DNA that codes for the intracellular tyrosine kinase domain. The fragment was inserted into a baculovirus vector, cotransfected with AcMNPV DNA, and the recombinant virus isolated. SF9 insect cells were infected with the virus to overexpress the protein, and the cell lysate was used for the assay. […] Filters were washed three times with 15% TCA containing 100 mM sodium pyrophosphate, and the radioactivity retained on the filters counted in a Wallac 1250 Betaplate reader. Nonspecific activity was defined as radioactivity retained on the filters following incubation of samples with buffer alone (no enzyme). […]
(§2) The inhibition activity of the compounds in Examples 7 and 8 were also evaluated using the Dissociated Enhanced Lanthanide Fluoroimmuno Assay (DELFIA) (Frank Loganzo and Carolyn Harady. A sensitive, time-resolved fluorometric assay for the detection of inhibitors of phosphotyrosine kinases. American Biotechnology Laboratory, December 1998). […] One hundred microliter DELFIA Enhancement Solution (EG&G Wallac) was added and time-resolved fluorescence of the reactions determined using a VICTOR2 1420 multilable counter (EG&G Wallac). […]

PDGF = molecular target: T2, PDGF (Mus musculus, UniProt P05622); test: PDGF receptor tyrosine kinase inhibition (DELFIA); assay type: biochemical; settings: kinase domain at 20 nM
T2 construct: The kinase domains from FGFR-1, VEGFR-2, Lck, and PDGF were purified from baculoviral vectors expression systems; made in house; host or cells: baculovirus expression system (insect cells)
T2 sequence (P05622 599-961 limits assumed): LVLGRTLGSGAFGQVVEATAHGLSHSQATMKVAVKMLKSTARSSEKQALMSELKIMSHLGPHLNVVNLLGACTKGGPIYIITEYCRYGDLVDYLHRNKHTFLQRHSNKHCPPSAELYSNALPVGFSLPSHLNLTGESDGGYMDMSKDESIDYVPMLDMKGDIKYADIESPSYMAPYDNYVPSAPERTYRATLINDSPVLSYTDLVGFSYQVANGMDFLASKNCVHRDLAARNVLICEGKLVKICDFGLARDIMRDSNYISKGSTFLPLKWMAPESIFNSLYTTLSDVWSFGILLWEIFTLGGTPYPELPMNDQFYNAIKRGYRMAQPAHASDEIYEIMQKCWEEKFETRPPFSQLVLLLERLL
Text: as §1, §2

c-Src = molecular target: T3, c-Src (Homo sapiens, UniProt P12931); test: c-Src kinase inhibition (DELFIA); assay type: biochemical; settings: c-Src at 3 units per reaction
T3 construct: purchased Upstate Biotechnology, Lake Placid, N.Y
T3 sequence (P12931 whole entry, species assumed): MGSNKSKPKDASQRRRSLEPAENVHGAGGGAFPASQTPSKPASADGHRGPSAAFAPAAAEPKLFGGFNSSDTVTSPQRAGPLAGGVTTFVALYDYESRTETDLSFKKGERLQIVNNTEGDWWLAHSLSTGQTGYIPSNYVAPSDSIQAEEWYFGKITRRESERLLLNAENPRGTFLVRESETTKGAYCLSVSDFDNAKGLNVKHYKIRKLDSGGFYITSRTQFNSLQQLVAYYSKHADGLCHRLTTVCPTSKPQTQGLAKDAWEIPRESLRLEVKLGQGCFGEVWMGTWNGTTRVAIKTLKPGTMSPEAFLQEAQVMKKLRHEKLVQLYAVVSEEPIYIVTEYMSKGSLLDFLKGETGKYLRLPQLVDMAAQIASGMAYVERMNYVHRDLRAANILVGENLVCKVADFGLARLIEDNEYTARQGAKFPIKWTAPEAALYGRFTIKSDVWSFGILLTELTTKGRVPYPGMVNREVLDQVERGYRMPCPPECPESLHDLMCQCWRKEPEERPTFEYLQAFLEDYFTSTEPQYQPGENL
Experimental: c-Src kinase is purified from baculovirus infected insect cell lysates using an antipeptide monoclonal antibody directed against the N-terminal amino acids (amino acids 2-17) of c-Src. The antibody, covalently linked to 0.65 μm latex beads, is added to a suspension of insect cell lysis buffer comprised of 150 mM NaCl, 50 mM Tris pH 7.5, 1 mM DTT, 1% NP-40, 2 mM EGTA, 1 mM sodium vanadate, 1 mM PMSF, 1 μg/mL each of leupeptin, pepstatin, and aprotinin. Insect cell lysate containing c-Src protein is incubated with these beads for 3 to 4 hours at 4° C. with rotation. […] The filters are then punched, counted in a liquid scintillation counter, and the data examined for inhibitory activity in comparison to a known inhibitor such as erbstatin. […]
as §2

VEGFR-2 = molecular target: T4, VEGFR-2 (Homo sapiens, UniProt P35968); test: VEGFR-2 tyrosine kinase inhibition (DELFIA); assay type: biochemical; settings: kinase domain at 20 nM; read-out: (VEGF-2) (IC50 = μM)
T4 construct: The kinase domains from FGFR-1, VEGFR-2, Lck, and PDGF were purified from baculoviral vectors expression systems; made in house; host or cells: baculovirus expression system (insect cells)
T4 sequence (P35968 834-1162 limits assumed, species assumed): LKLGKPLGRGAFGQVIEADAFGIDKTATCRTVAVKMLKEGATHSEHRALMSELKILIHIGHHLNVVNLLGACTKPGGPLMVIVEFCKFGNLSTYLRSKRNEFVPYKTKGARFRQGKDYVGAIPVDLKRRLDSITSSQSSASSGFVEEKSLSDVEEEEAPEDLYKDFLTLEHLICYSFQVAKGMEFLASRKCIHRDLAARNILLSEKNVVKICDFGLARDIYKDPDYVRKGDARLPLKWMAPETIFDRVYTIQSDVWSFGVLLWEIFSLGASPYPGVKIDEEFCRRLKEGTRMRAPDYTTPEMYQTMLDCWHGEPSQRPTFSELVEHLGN
Experimental: (§3) The inhibition activity of the compounds in Examples 7 and 8 were also evaluated using the Dissociated Enhanced Lanthanide Fluoroimmuno Assay (DELFIA) (Frank Loganzo and Carolyn Harady. A sensitive, time-resolved fluorometric assay for the detection of inhibitors of phosphotyrosine kinases. American Biotechnology Laboratory, December 1998). DELFIA plates (EG&G Wallac, Gaithersburg, Md.) were coated overnight with Poly Glu Tyr (4:1) (Sigma, St. Louis, Mo.) overnight at room temperature, washed (DELFIA wash reagent, EG&G Wallac), and spotted with 1 μL inhibitor dilution or DMSO carrier control per well. In some cases, kinase was autophosphorylated prior to analysis by incubating 45 minutes at 4° C. in the presence of 4 mM ATP and 25 mM MgCl2. A typical 100 μL kinase assay reaction contained 20 mM Tris (pH 7.5), 20 mM MgCl2, 50 mM NaCl, 5 mM DTT, 200 μM ATP, and protease inhibitors (Mini EDTA-free protease inhibitor cocktail tablets, Boehringer Mannheim, Indianapolis, Ind.), 40 μM ATP, and an appropriate concentration of inhibitor. The reaction was allowed to continue for 30 minutes at room temperature. […] One hundred microliter DELFIA Enhancement Solution (EG&G Wallac) was added and time-resolved fluorescence of the reactions determined using a VICTOR2 1420 multilable counter (EG&G Wallac). […]

Lck = molecular target: T5, Lck (Homo sapiens, UniProt P06239); test: Lck kinase inhibition (DELFIA); assay type: biochemical; settings: kinase domain at 20 nM
T5 construct: The kinase domains from FGFR-1, VEGFR-2, Lck, and PDGF were purified from baculoviral vectors expression systems; made in house; host or cells: baculovirus expression system (insect cells)
T5 sequence (P06239 245-498 limits assumed, species assumed): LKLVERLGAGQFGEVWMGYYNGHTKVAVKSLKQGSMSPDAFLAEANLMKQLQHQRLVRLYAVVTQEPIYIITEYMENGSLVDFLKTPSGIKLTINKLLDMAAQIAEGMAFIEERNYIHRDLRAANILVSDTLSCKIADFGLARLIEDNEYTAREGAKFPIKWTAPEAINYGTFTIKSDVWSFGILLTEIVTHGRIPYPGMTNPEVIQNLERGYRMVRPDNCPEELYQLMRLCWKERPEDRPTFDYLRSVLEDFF
Experimental: as §3

| IC50 (FGFR-1) [µM] | IC50 (PDGF) [µM] | IC50 (c-Src) [µM] | melting point | IC50 (VEGFR-2) [µM] | Ki (Lck) [µM] | SMILES |
| --- | --- | --- | --- | --- | --- | --- |
| 6.04 | > 50 | 10.6 | 120 to 121 °C (dec.) |  |  | CCN(CC)CCCCNc1nnc2cc(-c3cc(OC)cc(OC)c3)c(=O)n(CC)c2n1 [Example 7, 3-(4-Diethylamino-butylamino)-7-(3,5-dimethoxy-phenyl)-5-ethyl-5H-pyrido[2,3-e]-1,2,4-triazin-6-one] |
| 1.22 | > 50 | > 4 |  | 0.35 | > 4 | CCn1c(=O)c(-c2cc(OC)cc(OC)c2)cc2nnc(Nc3ccncc3)nc21 [Example 8, 7-(3,5-Dimethoxy-phenyl)-5-ethyl-3-(pyridin-4-ylamino)-5H-pyrido[2,3-e]-1,2,4-triazin-6-one] |
